Literature values, collected in patent publication US10166194B2, “Hydrocortisone controlled release formulation” (Diurnal Limited, priority 2012, dated 2019).

half-life: ca. 3 hours
SMILES: C[C@]12CCC(=O)C=C1CC[C@@H]1[C@@H]2[C@@H](O)C[C@@]2(C)[C@H]1CC[C@]2(O)C(=O)CO [Hydrocortisone]
